± gives the standard deviation of the averaged measurements.
Columns and labels:
Assay in all cases: CTG-3D luminescence at 96 h relative to day-0 seeding control (ratio to day 0); higher = more growth / less cytotoxicity; PDxO 3D drug screen, 96 h, CTG-3D normalised to day-0 seeding control.
[1] = system: HCI-019 (organoid from a triple-negative breast cancer xenograft)
[2] = system: HCI-001 (organoid from a triple-negative breast cancer xenograft)
[3] = system: HCI-003.E2 (organoid from an ER-positive breast cancer xenograft)
[4] = system: HCI-002 (organoid from a triple-negative breast cancer xenograft)
[5] = system: HCI-024 (organoid from a breast cancer xenograft)

Cc1nc(-c2cn3c(n2)-c2ccc(-c4cnn(C(C)(C)C(N)=O)c4)cc2OCC3)n(C(C)C)n1 [taselisib]
CTG-3D luminescence at 96 h
Conditions	12.5 pM	0.00025 µM	0.005 µM	0.1 µM	1 µM	10 µM	100 µM	625 fM
[1], days in culture: 110	1.23	1.32	1.4	1.45	0.521	0.496	0.105	2.64
[1], days in culture: 131	2.82	3.38	3.03	1.62	1.23	0.571	0.133	4.04
[1], days in culture: 152	3.26	2.42	2.02	1.86	1.08	0.381	0.116	2.51
[2], days in culture: 240	1.68	0.982	1.07	0.482	0.567	0.383	0.093	1.22
[2], days in culture: 260	2.04	1.03	1.04	0.934	0.486	0.536	0.019	1.57
[2], days in culture: 269	1.61	1.56	1.43	1.21	0.629	0.576	0.0422	1.86
[2], days in culture: 327	1.4	1.39	1.7	1.66	0.874	0.542	0.213	1.84
[2], days in culture: 346	1.31	1.22	1.02	1.1	1.15	0.603	0.269	1.12
[2], days in culture: 364	1.5	1.06	1.37	0.786	0.791	0.737	0.0204	1.53
[4], days in culture: 62	2.78	2.75	2.69	2.06	1.75	1.12	0.0194	3.01
[4], days in culture: 82	2.76	2.9	2.23	2.39	1.79	1.08	0.0159	3.2
[4], days in culture: 91	3.66	3.28	2.4	2.4	1.64	1.32	0.0254	3.59
[4], days in culture: 191	2.84	2.45	2.55	2.13	2.1	0.981	0.137	2.84
[4], days in culture: 209	2.15	2.3	2.09	1.75	1.5	0.726	0.0139	2.45
[4], days in culture: 227	4.99	5.28	4.54	3.54	2.79	1.69	0.0558	5.91
[5], days in culture: 105	1.47	1.44	1.54	1.77	1.34	0.981	0.403	1.9
[5], days in culture: 122	2.21	2.49	1.79	1.88	1.6	1.81	0.258	2.63
[5], days in culture: 163	1.36	2.13	1.7	2.36	2.06	1.62	0.316	2

[3]
Conditions	CTG-3D luminescence at 96 h
12.5 pM	2.19 ± 0.79
0.00025 µM	2.28 ± 0.68
0.005 µM	1.77 ± 0.34
0.1 µM	0.633 ± 0.25
1 µM	0.183 ± 0.041
10 µM	0.0364 ± 0.013
100 µM	0.0189 ± 0.0028
625 fM	2.14 ± 0.43

Cc1cc(Nc2ncnc3ccc(NC4=NC(C)(C)CO4)cc23)ccc1Oc1ccn2ncnc2c1 [tucatinib]
CTG-3D luminescence at 96 h
Conditions	12.5 pM	0.00025 µM	0.005 µM	0.1 µM	1 µM	10 µM	100 µM	625 fM
[1], days in culture: 110	2.14	1.65	1.28	1.81	1.13	2.33	0.029	2.47
[1], days in culture: 131	2.25	3.22	3.6	3.65	2.9	3.09	0.0325	4.09
[1], days in culture: 152	3.48	3.89	3.04	1.67	1.99	2.26	0.0487	2
[2], days in culture: 240	1.47	0.88	0.65	1.24	1.37	1.02	0.0264	1.43
[2], days in culture: 260	2.62	0.988	1.22	1.38	0.756	1.46	0.206	1.5
[2], days in culture: 269	1.48	1.49	1.39	1.64	1.38	1.67	0.0618	1.69
[2], days in culture: 327	1.8	1.6	1.87	1.75	1.44	1.16	0.0356	1.78
[2], days in culture: 346	1.47	1.22	1.17	1	1.24	1.25	0.0455	1.21
[2], days in culture: 364	1.49	1.19	1.34	0.88	0.895	1.28	0.0245	1.63
[4], days in culture: 62	2.76	2.54	3.08	2.78	2.68	2.44	0.0174	2.91
[4], days in culture: 82	2.73	3.27	2.09	2.6	2.75	1.59	0.0194	2.63
[4], days in culture: 91	3.43	3.15	2.38	2.79	2.2	2.58	0.0163	3.48
[4], days in culture: 191	2.63	2.43	2.47	2.5	3.12	2.01	0.0155	2.73
[4], days in culture: 209	2.22	2.16	2.08	2.02	2.19	1.5	0.0106	2.39
[4], days in culture: 227	5.23	5.28	4.84	4.86	4.14	3.82	0.0281	5.85
[5], days in culture: 105	1.67	1.75	1.37	1.61	1.49	1.54	0.0289	2.2
[5], days in culture: 122	1.99	2.82	2.36	1.93	1.73	1.83	0.0421	2.27
[5], days in culture: 163	1.68	1.9	1.49	2.11	1.77	1.88	0.0384	2.18

[3]
Conditions	CTG-3D luminescence at 96 h
12.5 pM	2.15 ± 0.73
0.00025 µM	2.41 ± 0.78
0.005 µM	2.02 ± 0.54
0.1 µM	2.29 ± 0.47
1 µM	1.93 ± 0.47
10 µM	1.31 ± 0.14
100 µM	0.018 ± 0.017
625 fM	2.12 ± 0.46
